Like-named read-outs stand apart in the source and are kept apart here.
Assays:
Type in all cases: biochemical
[1] = biological target: T1, human collagenase-3 (Coll3) (Homo sapiens, UniProt P45452); experiment: In vitro MMP inhibition assay (hydrolysis of fluorogenic MCA peptide substrate), collagenase-3; details: Table 1; Ki,app; MCA peptide substrate 10 μM, 37° C., pH 7.5, 2% DMSO
T1 construct: catalytic domain liberated with APMA
Description: The propeptide and catalytic domain of human collagenase-3 (Coll3) was expressed in E. coli as an N-terminal fusion protein with ubiquitin. After purification of the fusion from inclusion bodies, the catalytic domain was liberated by treatment with 2 mM APMA at room temperature overnight. Final purification was completed using copper chelate chromatography.
(§1) Assays were performed in assay buffer (50 mM Tricine pH 7.5, 200 mM sodium chloride, 10 mM calcium chloride, 0.5 mM zinc acetate containing 2% dimethyl sulfoxide (DMSO)) once the substrate and inhibitor were diluted into it. Stock solutions of inhibitors were prepared in 100% DMSO. Stock solutions of the substrate were prepared in 100% DMSO at a concentration of 6 mM.
(§2) The assay method was based on the hydrolysis of MCA-Pro-Leu-Gly-Leu-DPA-Ala-Arg-NH2 (American Peptide Co.) at 37° C. (see Knight, C. G. et al., FEBS, 1992, 296, 263-266). The fluorescence changes were monitored with a Perkin-Elmer LS-50B fluorimeter using an excitation wavelength of 328 nm and an emission wavelength of 393 nm. The substrate concentration used in the assays was 10 μM. The inhibitor was diluted into the assays from a solution in 100% DMSO, and controls substituted an equal volume of DMSO so that the final DMSO concentration from inhibitor and substrate dilution in all assays was 2%. […] Proper determination of steady-state rates of substrate cleavage required assay lengths of 60 minutes to allow for complete equilibration of the enzyme-inhibitor complex.
(§3) The Km for the MCA peptide substrate with the matrix metalloproteinases is quite high and exceeds its solubility under assay conditions. Consequently, the apparent Ki (Ki,app) was determined to describe the strength of inhibition. However, in this case, Ki,app would be essentially equal to Ki since [S]<<Km. For the determination of Ki,app, the concentration of the inhibitor was varied at a constant and low concentration of substrate and the steady-state rates of fluorescence change determined. In most cases absorptive quench due to the presence of ligand was not observed. For slow-binding inhibitors, onset of inhibition curves were collected for at least 45 minutes so that equilibrium was established. Steady-state rates of fluorescence change were obtained by fitting a curve to an equation for a single exponential decay containing a linear phase. The fitted value of the linear phase was taken as the steady-state rate. The steady-state rates were fitted to the Michaelis equation describing competitive inhibition by non-linear methods. Data resulting from tight-binding inhibition was analyzed, and Ki,app determined by fitting the data to the tight-binding equation of Morrison (Biochem. Biophys. Acta, vol. 185, pp. 269-286 (1969)) by non-linear methods.
(§4) All Ki values are in nM units.

[2] = biological target: T2, human collagenase-1 (HFC) (Homo sapiens, UniProt P03956); experiment: In vitro MMP inhibition assay (hydrolysis of fluorogenic MCA peptide substrate), fibroblast collagenase-1; details: Table 1; Ki,app; MCA peptide substrate 10 μM, 37° C., pH 7.5, 2% DMSO
T2 sequence (P03956 100-269 limits assumed): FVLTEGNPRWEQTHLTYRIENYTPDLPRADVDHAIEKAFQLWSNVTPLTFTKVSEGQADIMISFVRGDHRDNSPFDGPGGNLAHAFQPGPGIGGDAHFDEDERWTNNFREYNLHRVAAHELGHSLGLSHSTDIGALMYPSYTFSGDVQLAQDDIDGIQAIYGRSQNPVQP
Description: The catalytic domain of human collagenase-1 was expressed as a fusion protein with ubiquitin in E. coli (see Gehring, E. R., J Biol. Chem., 1995, 270, 22507). After purification of the fusion protein, the fibroblast collagenase-1 catalytic domain (HFC) was released either by treatment with purified, active stromelysin-1 (1:50 wlw ratio), which generated nearly 100% N-terminal Phe1, or by autoprocessing the concentrated collagenase-1 fusion and then incubating at 37° C. for 1 hour. Final purification was completed using zinc chelate chromatography.
as §1, §2, §3, §4

human stromelysin (Sln) = human stromelysin (Sln) (Homo sapiens, UniProt P08254); experiment: In vitro MMP inhibition assay (hydrolysis of fluorogenic MCA peptide substrate), stromelysin
Description: The catalytic domain of human stromelysin (Sln) was obtained by expression and purification of a C-terminally truncated prostromelysin-1 from E. coli host BL21 (see Marcy et al. Biochem., 1991, 30, 6476). The subsequent activation of the mature form (Sln) was completed with 2 mM APMA for 1 hour at 37° C., followed by separation using a sizing column.
as §1, §2, §3, §4

[3] = biological target: human progelatinase A (GelA) (Homo sapiens, UniProt P08253); experiment: In vitro MMP inhibition assay (hydrolysis of fluorogenic MCA peptide substrate), gelatinase A
Description: The catalytic and fibronectin-like portion of human progelatinase A (GelA) was expressed as a fusion protein with ubiquitin in E. Coli. Assays were carried out on autocatalytically activated material.
as §1, §2, §3, §4

Human matrilysin (Matr) = biological target: T3, Human matrilysin (Matr) (Homo sapiens, UniProt P09237); experiment: In vitro MMP inhibition assay (hydrolysis of fluorogenic MCA peptide substrate), matrilysin; details: Table 1; Ki,app; MCA peptide substrate 10 μM, 37° C., pH 7.5, 2% DMSO; read-out: Matri Ki
T3 construct: catalytic domain liberated with APMA
T3 sequence (P09237 95-267): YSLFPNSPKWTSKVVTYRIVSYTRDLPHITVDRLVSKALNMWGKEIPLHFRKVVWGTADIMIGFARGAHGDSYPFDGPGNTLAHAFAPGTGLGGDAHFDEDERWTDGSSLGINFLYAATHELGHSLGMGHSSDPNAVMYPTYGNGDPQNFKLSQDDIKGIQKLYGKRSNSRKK
Description: Human matrilysin (Matr) was expressed in E. coli as a fusion protein with ubiquitin. After purification of the matrilysin/ubiquitin fusion from inclusion bodies, the catalytic domain was liberated by treatment with 2 mM APMA at 37° C. for 2 hours. Final purification was complete using copper chelate chromatography.
as §1, §2, §3, §4

[4] = Table 1, Ki,app, MCA peptide substrate 10 μM, 37° C., pH 7.5, 2% DMSO, read-out: Sin Ki
[5] = Table 1, Ki,app, MCA peptide substrate 10 μM, 37° C., pH 7.5, 2% DMSO, read-out: Gel A

Chain of human stromelysin (Sln) (P08254 100-272 limits assumed): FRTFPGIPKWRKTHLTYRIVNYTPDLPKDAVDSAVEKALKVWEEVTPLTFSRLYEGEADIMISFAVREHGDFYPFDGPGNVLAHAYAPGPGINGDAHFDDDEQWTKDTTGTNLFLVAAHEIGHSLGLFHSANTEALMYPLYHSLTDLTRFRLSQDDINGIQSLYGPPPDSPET
Chain of human progelatinase A (GelA) (P08253 110-446 limits assumed): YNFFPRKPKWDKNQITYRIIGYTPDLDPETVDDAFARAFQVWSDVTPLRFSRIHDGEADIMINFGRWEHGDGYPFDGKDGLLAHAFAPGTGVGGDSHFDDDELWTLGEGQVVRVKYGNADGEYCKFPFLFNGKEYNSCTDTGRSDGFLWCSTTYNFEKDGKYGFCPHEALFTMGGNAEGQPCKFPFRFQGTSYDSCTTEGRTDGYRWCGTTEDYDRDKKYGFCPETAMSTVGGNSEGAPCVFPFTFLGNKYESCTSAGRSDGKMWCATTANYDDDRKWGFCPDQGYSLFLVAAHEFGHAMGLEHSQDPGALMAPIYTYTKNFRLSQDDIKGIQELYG

SMILES	Ki [1]	Ki [2]	Ki (human stromelysin (Sln); [4])	Ki (human stromelysin (Sln); Table 2, comparative example, read-out: STROMELYSIN Ki)	Ki [3, 5]	Ki ([3]; Table 2, comparative example, gelatinase A, read-out: GELATINASE Kj)	Ki (Human matrilysin (Matr))
CC(C)(C)C(NS(=O)(=O)c1ccc(Oc2ccc(Cl)cc2)cc1)C(=O)NO (stereo in doubt) [Example 9m, 2(S)--N-hydroxy-3,3-dimethyl-2-[(4-(4-chlorophenoxy)benzenesulfonyl)amino]butanamide]	0.034 nM	21 nM	1 nM	1 nM	0.09 nM	0.09 nM	93 nM
CSC(C)(C)[C@@H](NS(=O)(=O)c1ccc(Oc2ccc(Cl)cc2)cc1)C(=O)NO [Example 9b, 2(S)--N-hydroxy-3-methyl-3-methylsulfanyl-2-[(4-(4-chlorophenoxy)benzenesulfonyl)amino]butanamide]	0.042 nM	30 nM	1.5 nM		0.065 nM		115 nM
CC(C)(SCc1ccccc1)[C@@H](NS(=O)(=O)c1ccc(Oc2ccccc2)cc1)C(=O)NO [Example 9i, 2(S)--N-hydroxy-3-methyl-3-benzylsulfanyl-2-[(4-phenoxybenzenesulfonyl)amino]butanamide]	0.16 nM	33 nM	1.4 nM		0.038 nM		26 nM
CC(C)(C)[C@H](NS(=O)(=O)c1ccc(Oc2ccccc2)cc1)C(=O)NO [Example 9k, 2(S)--N-hydroxy-3,3-dimethyl-2-[(4-phenoxybenzenesulfonyl)-amino]butanamide]	0.057 nM	53 nM	4.2 nM		0.091 nM		376 nM
CC(C)(C)C(NS(=O)(=O)c1ccc(Oc2ccc(F)cc2)cc1)C(=O)NO (stereo in doubt) [Example 9l, 2(S)--N-hydroxy-3,3-dimethyl-2-[(4-(4-fluorophenoxy)benzenesulfonyl)-amino]butanamide]	0.059 nM	30 nM	1.8 nM		0.109 nM		120 nM
CC(C)(C)[C@H](NS(=O)(=O)c1ccc(Oc2ccccn2)cc1)C(=O)NO [Example 10c]	4.6 nM	960 nM	71 nM		5.1 nM		2270 nM
